Here are results for five compounds from patent US20260166128A1, “HUMAN AMYLIN ANALOG, AND DERIVATIVE THEREOF AND USE THEREOF” (priority 2022, published 2026).

pEC50: −log10 of the molar value. Numbered stars: 1 amine (or outer) side, 2 acyl side, 3 side chain; on linkers, the order of the positions; unused ones are H or OH. Bridge positions count the residues as written; N and C are the ends. Square brackets hold non-standard residues; d marks the D form. Side chains are listed from the residue outwards. Peptide text beside a SMILES is read from it. * marks the point of attachment. C20 diacid = O=C(O)CCCCCCCCCCCCCCCCCCC(=O)*; C18 diacid = O=C(O)CCCCCCCCCCCCCCCCC(=O)*; γGlu = O=C(O)[C@H](CCC(=O)[*:2])N[*:1]; Hyp = O=C(O)[C@@H]1C[C@@H](O)CN1; Aoc = NCCCCCCCC(=O)O; Sar = CNCC(=O)O

For this assay, the target named is T1, human amylin receptor (Homo sapiens, UniProt O60896+P30988).
T1 construct: host or cells: CHO-K1/Ga15/AMY3 cells, further stably transfected with a CRE-luciferase plasmid
T1 sequence (P30988 25-474): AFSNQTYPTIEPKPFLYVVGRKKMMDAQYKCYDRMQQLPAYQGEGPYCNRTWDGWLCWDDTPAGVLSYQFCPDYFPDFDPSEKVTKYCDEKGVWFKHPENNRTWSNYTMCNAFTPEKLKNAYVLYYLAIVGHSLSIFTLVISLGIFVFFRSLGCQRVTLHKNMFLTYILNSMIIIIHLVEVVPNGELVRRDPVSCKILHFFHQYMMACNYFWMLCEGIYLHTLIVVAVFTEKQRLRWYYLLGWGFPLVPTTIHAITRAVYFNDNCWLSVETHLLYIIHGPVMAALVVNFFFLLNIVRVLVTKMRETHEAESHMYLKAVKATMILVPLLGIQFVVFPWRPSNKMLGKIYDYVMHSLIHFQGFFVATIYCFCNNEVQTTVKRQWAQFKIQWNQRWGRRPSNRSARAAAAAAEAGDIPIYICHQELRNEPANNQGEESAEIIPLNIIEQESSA
T1 sequence (O60896 24-148 partner): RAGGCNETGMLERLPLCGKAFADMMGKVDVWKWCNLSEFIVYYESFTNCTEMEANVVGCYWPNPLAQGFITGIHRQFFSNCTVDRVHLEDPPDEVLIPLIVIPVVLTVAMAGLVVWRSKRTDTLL
In words: Luciferase assay of amylin derivatives in amylin receptor/CRE-luc CHO cell line. Format: cell-based. To be noted: CHO-K1/Ga15/AMY3 CRE-luc cells, 24 hours incubation, F12 medium containing 10% FBS; read-out: EC50.

Description: The experiment was intended to detect the activity or efficacy of the amylin derivatives on a human amylin receptor in vitro by luciferase assay.
50 μL of growth medium (F12 medium containing 10% FBS) was added into each well of a white 96-well plate, and the stably transfected amylin/CRE-lue CHO cells were inoculated into the white 96-well plate at a density of about 20,000 cells/well for activity determination.

By pEC50 is commonly meant the EC50 on a negative log10 scale, so that one unit is a factor of ten. For the compound `CC[C@H](C)[C@H](NC(=O)[C@@H]1CCCN1C(=O)CN(C)C(=O)[C@H](CC(C)C)NC(=O)[C@H](CC(N)=O)NC(=O)[C@H](CC(N)=O)NC(=O)[C@H](CO)NC(=O)[C@H](CO)NC(=O)[C@H](Cc1c[nH]cn1)NC(=O)[C@H](CCCNC(=N)N)NC(=O)[C@H](CC(C)C)NC(=O)[C@H](Cc1ccccc1)NC(=O)[C@H](CC(=O)O)NC(=O)[C@H](C)NC(=O)[C@H](CC(C)C)NC(=O)[C@H](CCCNC(=N)N)NC(=O)[C@H](CCC(N)=O)NC(=O)[C@@H](NC(=O)[C@H](C)NC(=O)[C@@H]1CSSC[C@H](NC(=O)[C@H](CCCCN)NC(=O)CC[C@H](NC(=O)CCCCCCCCCCCCCCCCCCC(=O)O)C(=O)O)C(=O)N[C@@H](CC(N)=O)C(=O)N[C@@H]([C@@H](C)O)C(=O)N[C@@H](C)C(=O)N[C@@H]([C@@H](C)O)C(=O)N1)[C@@H](C)O)C(=O)N[C@@H](CC(C)C)C(=O)N1CCC[C@H]1C(=O)N1CCC[C@H]1C(=O)N[C@H](C(=O)N[C@@H](CC(N)=O)C(=O)N[C@H](C(=O)NCC(=O)N[C@@H](CO)C(=O)N[C@@H](CC(N)=O)C(=O)N[C@H](C(=O)N1CCC[C@H]1C(N)=O)[C@@H](C)O)C(C)C)[C@@H](C)O` [PD172] ({C20 diacid-γGlu}-KCNTATCATQRLADFLRHSSNNL[Sar]PILPPTNVGSNTP-NH2; disulfide 2-7 (inferred)), the pEC50 is 10.12. The result for `CC[C@H](C)[C@H](NC(=O)[C@H](CCCCNC(=O)CC[C@H](NC(=O)CCCCCCCCCCCCCCCCCCC(=O)O)C(=O)O)NC(=O)CNC(=O)[C@H](CC(C)C)NC(=O)[C@H](CC(N)=O)NC(=O)[C@H](CC(N)=O)NC(=O)[C@H](CO)NC(=O)[C@H](CO)NC(=O)[C@H](Cc1c[nH]cn1)NC(=O)[C@H](CCCNC(=N)N)NC(=O)[C@H](CC(C)C)NC(=O)[C@H](Cc1ccccc1)NC(=O)[C@H](CC(=O)O)NC(=O)[C@H](C)NC(=O)[C@H](CC(C)C)NC(=O)[C@H](CCCNC(=N)N)NC(=O)[C@H](CCC(N)=O)NC(=O)[C@@H](NC(=O)[C@H](C)NC(=O)[C@@H]1CSSC[C@H](NC(=O)[C@@H](N)CCCNC(=N)N)C(=O)N[C@@H](CC(N)=O)C(=O)N[C@@H]([C@@H](C)O)C(=O)N[C@@H](C)C(=O)N[C@@H]([C@@H](C)O)C(=O)N1)[C@@H](C)O)C(=O)N[C@@H](CC(C)C)C(=O)N1CCC[C@H]1C(=O)N1CCC[C@H]1C(=O)N[C@H](C(=O)N[C@@H](CC(N)=O)C(=O)N[C@H](C(=O)NCC(=O)N[C@@H](CO)C(=O)N[C@@H](CC(N)=O)C(=O)N[C@H](C(=O)N1C[C@H](O)C[C@H]1C(N)=O)[C@@H](C)O)C(C)C)[C@@H](C)O` [PD102] (H-RCNTATCATQRLADFLRHSSNNLGK([γGlu-C20 diacid])ILPPTNVGSNT[Hyp]-NH2; disulfide 2-7) reads 10.48; that for `CC[C@H](C)[C@H](NC(=O)[C@@H]1CCCN1C(=O)CCCCCCCNC(=O)[C@H](CC(C)C)NC(=O)[C@H](CC(N)=O)NC(=O)[C@H](CC(N)=O)NC(=O)[C@H](CO)NC(=O)[C@H](CO)NC(=O)[C@H](Cc1c[nH]cn1)NC(=O)[C@H](CCCNC(=N)N)NC(=O)[C@H](CC(C)C)NC(=O)[C@H](Cc1ccccc1)NC(=O)[C@H](CC(=O)O)NC(=O)[C@H](C)NC(=O)[C@H](CC(C)C)NC(=O)[C@H](CCCNC(=N)N)NC(=O)[C@H](CCC(N)=O)NC(=O)[C@@H](NC(=O)[C@H](C)NC(=O)[C@@H]1CSSC[C@H](NC(=O)[C@H](CCCCN)NC(=O)CC[C@H](NC(=O)CCCCCCCCCCCCCCCCCCC(=O)O)C(=O)O)C(=O)N[C@@H](CC(N)=O)C(=O)N[C@@H]([C@@H](C)O)C(=O)N[C@@H](C)C(=O)N[C@@H]([C@@H](C)O)C(=O)N1)[C@@H](C)O)C(=O)N[C@@H](CC(C)C)C(=O)N1CCC[C@H]1C(=O)N1CCC[C@H]1C(=O)N[C@H](C(=O)N[C@@H](CC(N)=O)C(=O)N[C@H](C(=O)NCC(=O)N[C@@H](CO)C(=O)N[C@@H](CC(N)=O)C(=O)N[C@H](C(=O)N1CCC[C@H]1C(N)=O)[C@@H](C)O)C(C)C)[C@@H](C)O` [PD174] ({C20 diacid-γGlu}-KCNTATCATQRLADFLRHSSNNL[Aoc]PILPPTNVGSNTP-NH2; disulfide 2-7), 10.34.

`CC[C@H](C)[C@H](NC(=O)[C@@H]1CCCN1C(=O)CNC(=O)[C@H](CCCCNC(=O)CC[C@H](NC(=O)CCCCCCCCCCCCCCCCC(=O)O)C(=O)O)NC(=O)[C@H](CC(N)=O)NC(=O)[C@H](CC(N)=O)NC(=O)[C@H](CO)NC(=O)[C@H](CO)NC(=O)[C@H](Cc1c[nH]cn1)NC(=O)[C@H](CCCNC(=N)N)NC(=O)[C@H](CC(C)C)NC(=O)[C@H](Cc1ccccc1)NC(=O)[C@H](CC(=O)O)NC(=O)[C@H](C)NC(=O)[C@H](CC(C)C)NC(=O)[C@H](CCCNC(=N)N)NC(=O)[C@H](CCC(N)=O)NC(=O)[C@@H](NC(=O)[C@H](C)NC(=O)[C@@H]1CSSC[C@H](NC(=O)[C@@H](N)CCCNC(=N)N)C(=O)N[C@@H](CC(N)=O)C(=O)N[C@@H]([C@@H](C)O)C(=O)N[C@@H](C)C(=O)N[C@@H]([C@@H](C)O)C(=O)N1)[C@@H](C)O)C(=O)N[C@@H](CC(C)C)C(=O)N1CCC[C@H]1C(=O)N1CCC[C@H]1C(=O)N[C@H](C(=O)N[C@@H](CC(N)=O)C(=O)N[C@H](C(=O)NCC(=O)N[C@@H](CO)C(=O)N[C@@H](CC(N)=O)C(=O)N[C@H](C(=O)N1C[C@H](O)C[C@H]1C(N)=O)[C@@H](C)O)C(C)C)[C@@H](C)O` [PD084] (H-RCNTATCATQRLADFLRHSSNNK([γGlu-C18 diacid])GPILPPTNVGSNT[Hyp]-NH2; disulfide 2-7 (inferred); N-terminus assumed): the pEC50 is 11.10. As for `CC[C@H](C)[C@H](NC(=O)[C@@H]1CCCN1C(=O)[C@H](Cc1c[nH]cn1)NC(=O)[C@H](CC(C)C)NC(=O)[C@H](CC(N)=O)NC(=O)[C@H](CC(N)=O)NC(=O)[C@H](CO)NC(=O)[C@H](CO)NC(=O)[C@H](Cc1c[nH]cn1)NC(=O)[C@H](CCCNC(=N)N)NC(=O)[C@H](CC(C)C)NC(=O)[C@H](Cc1ccccc1)NC(=O)[C@H](CC(=O)O)NC(=O)[C@H](C)NC(=O)[C@H](CC(C)C)NC(=O)[C@H](CCCNC(=N)N)NC(=O)[C@H](CCC(N)=O)NC(=O)[C@@H](NC(=O)[C@H](C)NC(=O)[C@@H]1CSSC[C@H](NC(=O)[C@H](CCCCN)NC(=O)CC[C@H](NC(=O)CCCCCCCCCCCCCCCCCCC(=O)O)C(=O)O)C(=O)N[C@@H](CC(N)=O)C(=O)N[C@@H]([C@@H](C)O)C(=O)N[C@@H](C)C(=O)N[C@@H]([C@@H](C)O)C(=O)N1)[C@@H](C)O)C(=O)N[C@@H](CC(C)C)C(=O)N1CCC[C@H]1C(=O)N1CCC[C@H]1C(=O)N[C@H](C(=O)N[C@@H](CC(N)=O)C(=O)N[C@H](C(=O)NCC(=O)N[C@@H](CO)C(=O)N[C@@H](CC(N)=O)C(=O)N[C@H](C(=O)N1CCC[C@H]1C(N)=O)[C@@H](C)O)C(C)C)[C@@H](C)O` [PD162] ({C20 diacid-γGlu}-KCNTATCATQRLADFLRHSSNNLHPILPPTNVGSNTP-NH2; disulfide 2-7 (inferred)), the negative logarithm of the EC50 (pEC50) was 10.46.
